Assay results: patent US6664096B2, “Methods for improved diagnosis and treatment of mycobacterial infections” (priority 2000, dated 2003)
Like-named read-outs stand apart in the source and are kept apart here.

Assays:
Format in all cases: cell-based
[1] = system: M. tuberculosis H37Ra; assay: Resuscitation of 6 month old culture by phospholipids, CFU on 7H11 agar; details: for CFU/ml: 4 μg/ml, 6 month old cells, 7H11 agar, 3 weeks
Description: M. tuberculosis H37Ra cultures were grown in 7H9 medium containing Tween 80 (0.05%) and ADC (albumin-dextrose-catalase) enrichment at 37° C. for various periods of time as standing batch cultures. Cultures of varying age up to one year were used for the resuscitation experiments. Resuscitation of dormant M. tuberculosis by phosphatidylserine was performed as follows. A 6 month old M. tuberculosis H37Ra culture was washed and resuspended in 7H9 medium followed by plating at different dilutions on 7H11 agar plates containing 4 μg/ml phosphatidylserine (derived from bovine brain, containing a mixture of two unknown fatty acyl groups, Sigma Chemical Co.) or phosphatidylserine dioleoyl. The plates were incubated at 37° C. for 3 weeks when the CFU was determined. Data represent average of duplicate samples.
To confirm that a phospholipid was responsible for activity, we first tested commercially available phosphatidyl-L-serine and a dioleoyl phosphatidyl-L-serine, both of which are precursor of phosphatidylethanolamine and phosphatidylcholine, for resuscitation activity for the 6 month old M. tuberculosis H37Ra cells. Both compounds had significant resuscitation activity over medium control as judged by colony forming units (CFU) assay. Phosphatidyl-L-serine and a dioleoyl phosphatidyl-L-serine at 4 μg/ml gave 1.2×10^7, 2×10^6 CFU/ml, respectively, whereas the medium control produced 3×10^4 CFU/ml.

[2] = system: M. tuberculosis H37Ra; details: 4 week old culture
[3] = system: M. tuberculosis H37Ra; details: 7-month-old culture
[4] = system: M. tuberculosis H37Ra; details: 7-month-old culture; remark: listed apart in the source
[5] = system: M. tuberculosis H37Ra; details: 7-month-old culture; remark: listed apart in the source
[6] = system: M. tuberculosis H37Ra; assay: Growth of small inocula of fresh 4-week-old culture with phosphatidylserine; details: 5 μg/ml in Sauton's medium, 20 days
Description: It is well known that to initiate growth of M. tuberculosis in liquid culture a large inoculum is required (Dubos and Davis, 1946). In a separate experiment involving a fresh 4-week-old M. tuberculosis H37Ra culture, the culture was serially diluted into Sauton's medium (1 ml) alone or into medium containing 5 μg/ml phosphatidylserine at 10^−2, 10^−3, 10^−4, 10^−5, 10^−6, 10^−7 dilutions. The cultures were incubated at 37° C. for 20 days when the visible growth was assessed and the cultures were plated on 7H11 plates, which were incubated at 37° C. for 3 weeks. Phosphatidyl-L-serine allowed small inocula (10^−7 dilution) to form visible growth and CFU on plates, whereas the control culture grew only at 10^−5 dilution.

Molecule	CFU/ml [1]	CFU values ([2]; day 3) [mL⁻¹]	CFU values ([2]; day 5) [mL⁻¹]	CFU values ([2]; day 8) [mL⁻¹]	CFU values ([2]; day 11) [mL⁻¹]	MTT data (OD readings at 570 nm) ([3]; day 0) [OD]	MTT data (OD readings at 570 nm) ([3]; day 5) [OD]	MTT data (OD readings at 570 nm) ([3]; day 10) [OD]	CFU data ([4]; day 5)	CFU data ([4]; day 10)	FDA-EB viability staining (% of viable green cells) ([5]; day 0) [%]	FDA-EB viability staining (% of viable green cells) ([5]; day 5) [%]	FDA-EB viability staining (% of viable green cells) ([5]; day 10) [%]	small inocula (dilution) forming visible growth and CFU on plates [6]	resuscitation and growth enhancing activity ([1]; compared with phosphatidylserine)
CCCCCCCC/C=C\CCCCCCCC(=O)OC[C@H](COP(=O)(O)OC[C@H](N)C(=O)O)OC(=O)CCCCCCC/C=C\CCCCCCCC [dioleoyl phosphatidyl-L-serine]	2×10^6 CFU/ml	–	–	–	–	–	–	–	–	–	–	–	–	–	–
NH2-AQLQAVPGAAQYIGLVESVAGSCNNY-OH (H-AQLQAVPGAAQYIGLVESVAGSCNNY-OH; listed as Mycobacterium tuberculosis) [Peptide P4, residues 85-110]	–	2e+06	3.25e+06	7.5e+07	2e+08	0.2248	0.6287	1.4131	50 × 10^5 CFU/ml	900 × 10^5 CFU/ml	1	11.5	50	–	–
NH2-LNATDPGAAAQFNASPVAQSYLRN-OH (H-LNATDPGAAAQFNASPVAQSYLRN-OH; listed as Mycobacterium tuberculosis) [Peptide P2, residues 48-71]	–	225000	500000	1.5e+07	7.5e+07	0.2609	0.6269	1.1567	100 × 10^5 CFU/ml	200 × 10^5 CFU/ml	1	2	27.5	–	–
NH2-LRNFLAAPPPQRAAMAAQLQAV-OH (H-LRNFLAAPPPQRAAMAAQLQAV-OH; listed as Mycobacterium tuberculosis) [Peptide P3, residues 69-90]	–	450000	4.5e+07	1.5e+08	1.5e+08	0.3147	0.6219	1.1917	40 × 10^5 CFU/ml	800 × 10^5 CFU/ml	2	4.5	42.5	–	–
phosphatidyl-L-serine	1.2×10^7 CFU/ml	–	–	–	–	–	–	–	–	–	–	–	–	10^−7	–
phosphatidylglycerol-oleoyl-palmitoyl [reference compound]	–	–	–	–	–	–	–	–	–	–	–	–	–	–	did not have significant activity
